These results are taken from US9050269B2, “Protection of virus particles from phagocytosis by expression of CD47” (priority 2009, dated 2015).

For test [1], the system named is THP-1 macrophages. The experiment in a line: Phagocytosis of IgG-opsonized sheep RBCs by THP-1 macrophages. The test is classed as cell-based, human. From the text:
Phagocytosis by the human-derived THP-1 macrophages of IgG-opsonized RBCs was studied by imaging in DIC microscopy. […] RBC membranes were prelabeled with PKH26, and non-engulfed RBCs were labeled with a fluorescein-labeled antibody against the Fc of the IgG-opsonin.
To more directly assess the function of the IIA isoform, the effects of both knockdown and overexpression were functionally studied.

Test [2] has as its system non-muscle myosin IIA at the phagocytic synapse of THP-1 macrophages. The experiment in a line: Protein localization to the phagocytic synapse (immunofluorescence). The class given is cell-based, human. As to conditions: blebbistatin 50 μM, 10 min pre-incubation. Here is the method:
[…] Opsonized beads of different sizes were added to THP-1 cells, PMA treated and immediately placed at 4° C. for 10 min to synchronize phagocytosis. […] For studies involving blebbistatin (EMD Biosciences), macrophages were treated for 10 min at 4° C. prior to temperature increase to 37° C. or for 45 min and 37° C. Macrophages treated with DMSO were used to verify no solvent effects.
Immunostaining was performed by permeabilization with 0.1% Triton X-100 in PBS for 20 min before blocking for 1 h with 5% BSA in PBS. Staining with primary antibodies was carried out for 1 h at room temperature in PBS. Following washing, samples were incubated with appropriate PE-conjugated secondary antibodies (1:1000). To label cytoskeletal proteins at the phagocytic synapse, primary Ab's prepared with Zenon Alexa 488 or Zenon Alexa 647 Fab labeling kits (Invitrogen) labeled for 45 min at room temperature. Cells were immediately fixed using 5% formaldehyde for 20 minutes and washed with PBS. Samples were analyzed by differential interference contrast (DIC) and fluorescence microscopy.
Images were acquired with an inverted microscope (Olympus; IX71) with a 60× (oil, 1.4 NA) objective using a Cascade CCD camera (Photometrics, Tuscon, Ariz.). Image acquisition was performed with Image Pro software (Media Cybernetics, Silver Spring, Md.). […]

For test [3], the system named is A549 human lung epithelial cells. The test is classed as cell-based. As to conditions: blebbistatin at various concentrations; MOI 270.
In test [4] the test system is THP-1 macrophages. The test can be described thus: Phagocytosis of IgG-opsonized streptavidin beads with or without hCD47 by THP-1 macrophages. The test is classed as cell-based, human. Here is the method: The extracellular immunoglobulin-like domains of human CD47 (hCD47) was recombinantly expressed with a spacer domain (Brown et al., 1994, Protein Eng. 7:515-21; Brown et al., 1998, J. Exp. Med. 188:2083-90) plus a C-terminal biotinylation site. […] The beads were opsonized by pretreatment with anti-streptavidin to again induce FcR-mediated phagocytosis (for 45 minutes at 37° C.), and non-engulfed beads were detected with a flourescein anti-Fc against the IgG-opsonin. The number of adherent IgG-opsonized beads per phagocyte was independent of hCD47 (not shown).
Human CD47 gave a Ki at high opsonin of 20 CD47/μm^2, which appears ˜10-fold less than normal human RBC densities of CD47. […] A higher baseline level of bead phagocytosis versus RBCs could redirect the fact that stiffer targets are more readily engulfed (Beningo et al., 2002, J. Cell Sci. 115:849-856).
For phagocytosis assays, macrophages were plated in 4 cm^2, or 2 cm^2 Lab-Tek II Chambered Coverglass (Nalge Nunc International, Naperville, Ill.) at 1.5×10^5/cm^2. Streptavidin polystyrene beads of different radius: 3.5 μm, 1.1 μm, 160 nm (Spherotech) and 100 nm (Ademtech) were added to macrophages at a ratio of 2:1, 20:1, 277:1, and 2206:1 respectively and incubate at 37° C. for 45 min. […] Non-phagocytosed beads were washed with PBS. Cells were fixed with 5% formaldehyde (Fisher Scientific) for 5 minutes, followed by immediate replacement with PBS. For differentiation of non-internalized beads, beads were labeled with a primary antibody, rabbit anti-streptavidin (Sigma) at 1:1000 in PBS for 20 min at 25° C. A second antibody, anti-rabbit R-PE (Sigma) was added at 1:1000 in PBS to the cells and incubated for an additional 20 minutes at 25° C. Cells were then washed with PBS/0.4% BSA and then quantified by light and fluorescent microscopy. At least 200 cells were scored per well and experiments were repeated at least three times. […]
Beads were opsonized at saturating densities of IgG, and over a 20-fold range of CD47 densities, the number of internalized beads per THP-1 was measured. […]

The test system of test [5] is THP-1 macrophages. The test is classed as cell-based, human.
A further test has as its target SHP-1 (Homo sapiens, UniProt P29350). As to conditions: reported, Chen et al., 2006; cited from earlier work.
Test [6] has as its system THP-1 macrophages. The test can be described thus: SHP-1 inhibitor effect on phagocytosis of IgG-opsonized particles. The test is classed as cell-based, human. Here is the method:
For phagocytosis assays with CD47 attached particles at 100 nm to 1.1 μm diameter were IgG-opsonizied. THP-1 macrophage, PMA activated were treated with 0-0.5 μM NSC-87877 an SHP-1 Inhibitor (gift from Frank L. Conlon) 5 minutes prior to the addition of IgG-opsonizied particles. Phagocytosis assay occurred at 37° C. for 45 minutes and then fixed for 5 minutes with 5% formaldehyde as described for the phagocytosis assay (Fisher Scientific).
In order to specifically block SHP-1, an inhibitor NSC-87877 was used with a reported high specificity to SHP-1 (Chen et al., 2006, Mol. Pharmacol. 70(2):562-70; Langdon et al., 2007, Development 134(22):4119-30). […] The uptake of these particles was measured as the number of particles ingested per phagocyte.

pIC50, pKi: −log10 of the molar value.

Sequence of SHP-1 (P29350 whole entry): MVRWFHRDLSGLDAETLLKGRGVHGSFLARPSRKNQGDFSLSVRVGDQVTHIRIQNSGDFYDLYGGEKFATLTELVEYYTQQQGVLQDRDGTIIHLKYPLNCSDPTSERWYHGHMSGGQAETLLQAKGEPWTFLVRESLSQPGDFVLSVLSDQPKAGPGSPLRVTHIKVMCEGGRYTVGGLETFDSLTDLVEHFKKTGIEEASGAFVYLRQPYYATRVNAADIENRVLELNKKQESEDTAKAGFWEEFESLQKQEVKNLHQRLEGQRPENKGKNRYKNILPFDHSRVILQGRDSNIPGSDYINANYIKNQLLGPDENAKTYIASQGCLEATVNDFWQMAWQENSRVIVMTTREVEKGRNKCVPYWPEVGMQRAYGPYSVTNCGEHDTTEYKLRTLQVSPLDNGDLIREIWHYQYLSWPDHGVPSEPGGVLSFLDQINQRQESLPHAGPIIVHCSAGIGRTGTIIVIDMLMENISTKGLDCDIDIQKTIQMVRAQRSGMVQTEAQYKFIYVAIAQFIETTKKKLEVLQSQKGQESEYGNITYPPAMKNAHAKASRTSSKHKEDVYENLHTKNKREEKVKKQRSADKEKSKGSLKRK

Regarding `Cc1ccc2c(c1)C(=O)C1(O)CCN(c3ccccc3)C1=N2` (stereo not drawn) [blebbistatin], in the test on THP-1 macrophages [1] (5 μM blebbistatin), the “inhibition of ShRBC phagocytosis by GFP-NMM IIA expressing THP-1” value is given as around 50%. In the test on THP-1 macrophages [1] (compared with CD47 on human RBCs), the “engulfment of sheep RBCs by THP-1 macrophages” value is recorded as “inhibited”. Moreover, at THP-1 macrophages [1] (dose-response, sheep RBCs engulfed by THP-1 macrophages, read-out: Ki-blebb for blebbistatin inhibition of phagocytosis), the pKi was 5.30. Besides, the “enrichment of NMM IIA at synaptic contacts with sheep RBC targets” value in test [2] was “inhibited enrichment of NMM IIA”. For the same molecule, the “lentivirus transduction in A549 cells” value in test [3] was “no effect”. In addition, in the test on THP-1 macrophages [4] (50 μM blebbistatin, 100 nm particles, vs DMSO), the “uptake of IgG-opsonized particles by THP-1” value was “decrease in uptake”. Further, the “uptake of IgG-opsonized particles by THP-1” value with THP-1 macrophages [4] (blebbistatin, 1.1 μm particles) is “comparable results”. For the same molecule, in the test on THP-1 macrophages [4] (blebbistatin, uncoated approximately 2.1 μm beads), the “phagocytosis of CD47-null beads” value is “inhibited phagocytosis of CD47-null beads to a level similar as hCD47 beads”. Besides, in the test with THP-1 macrophages [5] (50 μM Blebbistatin vs DMSO), the “transduction of control lentiviral particles” value was “inhibited transduction” and the “transduction of overexpressed hCD47 lentiviral particles” value is “no changes were observed”. For the same molecule, the “transduction efficiency of control lentivirus” value in the test on THP-1 macrophages [5] (blebbistatin at various concentrations, MOI 700) is recorded as “dose dependent response”.

Turning to `O=S(=O)(O)c1ccc2cc(N=Nc3cc(S(=O)(=O)O)c4cccnc4c3O)ccc2c1` [NSC-87877], the pIC50 on SHP-1 is 6.30. Besides, the “particles ingested per phagocyte, hCD47 particles” value with THP-1 macrophages [6] (62.5 nM NSC-87877, 100 nm IgG-opsonized particles with hCD47) is “an increase of ingested particles”; in the test on THP-1 macrophages [6] (NSC-87877, 1.1 μm IgG-opsonized particles with hCD47) it was “increase in uptake comparable to uncoated IgG-opsonizied particles”. The “particles ingested per phagocyte, beads without hCD47” value with THP-1 macrophages [6] (62.5 nM NSC-87877, 100 nm IgG-opsonized particles without hCD47) is given as “no statistical difference”.

As a reminder, the pKi is the negative decadic logarithm of the Ki, by convention in mol/L. The term pIC50 denotes −log10 of the IC50, conventionally taken in molar units.
